From paper PMC8749431 (mBio, 2022)

Key:
[1] = tested on: pseudotyped VSVs harboring SARS-CoV-2 S (SARS2-Spp); experiment: microbe, parasite or virus in culture; assay type: cell-based
[2] = tested on: rVSV-SARS-CoV-2-S-GFP; assay type: cell-based
[3] = Severe acute respiratory syndrome coronavirus 2
[4] = Severe acute respiratory syndrome coronavirus 2, 24 h
[5] = Severe acute respiratory syndrome coronavirus 2, Huh-7, 24 h
[6] = Severe acute respiratory syndrome coronavirus 2, MA104
[7] = Severe acute respiratory syndrome coronavirus 2, MA104, 24 h

Row | SMILES | inhibition of SARS2-Spp entry [1] | EC90 [1, 3] [µM] | EC50 [1, 4] [µM] | EC50 [1, 5] [µM] | EC90 [1, 6] [µM] | EC50 [1, 7] [µM] | EC50 (GFP signals) [2] | inhibition of rVSV-SARS-CoV-2-S-GFP infection [2] | EC50 [1, 3] [µM]
1 | CCN(CC)CCCC(C)Nc1ccnc2cc(Cl)ccc12 (stereo not drawn) [Chloroquine, chloroquine] | inhibited | 30.2 | 2.07 | 4.38 | 32.3 | 7.65 | single-digit micromolar range | inhibited | 
2 | Cc1cc(-c2nc(CN3CCC(C(=O)NCCCN4C[C@H](C)C[C@H](C)C4)CC3)co2)ccc1F [Fluoxazolevir, fluoxazolevir] |  | 13.6 | 6.82 | 2.64 | 18.5 | 3.86 | single-digit micromolar range | inhibited | 
3 | CN(C)C(=O)COC(=O)Cc1ccc(OC(=O)c2ccc(NC(=N)N)cc2)cc1 [Camostat, camostat] |  |  | > 100 | > 100 |  | > 100 |  |  | 
4 | O=C(CCCCC1SCC2NC(=O)NC21)NCCOCCOCCN1CCN(C(c2ccc(Cl)cc2)c2ccc(C3(C(F)(F)F)N=N3)cc2)CC1 (stereo not drawn) [CCZ-DB] |  |  |  |  |  |  |  |  | 12.9
5 | CN1CCN([C@@H](c2ccccc2)c2ccc(Cl)cc2)CC1 [(S)-CCZ, (S)-chlorcyclizine] |  |  | 11.4 | 9.2 | 11.1 | 4.09 |  |  | 
6 | CCOC(=O)[C@H]1O[C@@H]1C(=O)N[C@@H](CC(C)C)C(=O)NCCC(C)C [E-64d] | inhibited |  |  |  |  |  |  |  | 
7 | CCN1CCN(C(c2ccc(Cl)cc2)c2ccc(Cl)cc2)CC1 [Dichlorcyclizine, dichlorcyclizine] |  |  | 2.34 | 3.05 |  | 4.53 | single-digit micromolar range | inhibited | 
8 | O=C(CCCC[C@@H]1SC[C@@H]2NC(=O)N[C@@H]21)NCc1ccc(C2(C(F)(F)F)N=N2)cc1 [DB-Ctrl] |  |  |  |  |  |  |  |  | > 100
